Data reported in publication PMC7268320, “Cerebrospinal fluid penetration of targeted therapeutics in pediatric brain tumor patients” (Acta Neuropathologica Communications, 2020).
Entries after “also recorded” stand apart in the source; their conditions may differ.

Experiments:
[1] = Detection of drug metabolites in patient CSF, HPLC-IMS-Q-TOF MS with in silico metabolite prediction; format: in vivo, human
Source text: In a next step, theoretical molecular formulas and related ion masses of the predicted metabolites were transferred into a database and compared to measured high-resolution Q-TOF mass spectra of biological samples. For that purpose, MassHunter Qualitative Workflows B.08.00 software (Agilent Technologies, Santa Clara, California) was used, as it enables (semi)-automated data processing. Within this procedure, theoretical and measured exact ion masses and abundances of isotopologues and molecule-cation adducts were compared. The results of this comparison were then used to evaluate the validity of the identification, which is expressed as a score. This quality measure is important as it reduces the risk of false positives that are likely in complex biological samples, especially when only the accurate mass of a molecule is used. […]
(§1) Metabolite detection and determination of collision cross sections was performed using an IMS-Q-TOF MS within a mass range of 100 – 1700 m/z in QTOF-only and IMS mode respectively. Ionization was again obtained by the means of positive electrospray ionization using 5 L min-1 of nitrogen stream with 300 °C for drying, a capillary voltage of 3.5 kV and a nebulizer pressure of 35 psig. Further parameters included a sheath gas flow of 11 L min-1 at 350 °C and a nozzle voltage of 1 kV. The fragmentor voltage was set to 400 V. Ion mobility experiments were performed with a maximal drift time of 60 ms at a frame rate of 0.9 frames per second resulting in a total of 600 TOF-transients within one frame. Data processing was achieved using IM-MS Browser B.08.00 from Agilent Technologies on the basis of ion

[2] = metabolites detected in CSF; cited from earlier work
[3] = CSF drug concentration in pediatric brain tumor patients, Ommaya reservoir samples, HPLC-QqQ MS; format: in vivo, human; details: for CSF penetrance class: CSF concentration class; for CSF concentration, mean: total drug, steady state; for CSF concentration, mean / detection in CSF samples: oral dosing, pediatric brain tumor patients
Description: Samples were obtained from patients treated at the Department of Pediatrics and Adolescent Medicine at the General Hospital of Vienna and the study was approved by the ethics committee of the Medical University of Vienna. Patient characteristics (age, weight, sex) and clinical data (tumor type, medication, radiotherapy, localization, leptomeningeal disease, serum protein levels, and CSF protein levels) were retrieved from patient charts. Clinical and serum parameters were measured within the same treatment cycle, CSF protein levels at the same date and sample collection time point. Samples were collected and snap frozen within routine clinical sampling during intraventricular chemotherapy administration.
We included samples of patients who received oral small molecule inhibitors and concomitant intraventricular therapy. […] As backbone therapy the majority of patients were treated according to the MEMMAT protocol (NCT01356290) with slight modifications in some cases as indicated in Additional file 1: Table S1. Dosing for pediatric patients was adjusted according to the treatment protocols or previous reports as outlined in Table 1. […] In two cases, samples of patients being sequentially treated with different drugs were collected as indicated in Additional file 1: Table S2. […] CSF samples (< 0.5 mL) of pediatric patients were collected using an Ommaya reservoir, immediately snap frozen and afterwards stored at − 80 °C prior to HPLC-MS analysis. Figure 1 gives general information on the workflow of CSF sample collection, sample preparation and HPLC-MS analysis. Detailed information on the analysis method and the working parameters of the HPLC-MS system(s) can be found in the supplementary material available online (Additional file 1: Figures S1 and S2 and Tables S3–4).
In a first step, we determined whether CSF samples from Ommaya reservoirs analyzed with HPLC-QqQ MS or HPLC-IMS-Q-TOF MS allow reliable detection of orally administered drugs and the respective metabolites. For that purpose, special focus was on the improvement of an HPLC-QqQ MS multi-method to quantitate the respective substances in CSF samples. The applied chromatographic gradient as well as the sensitivity of the MS detection were optimized to allow a quantitation of all mentioned analytes within one run and over a broad range of analyte concentration levels (800 ng L^− 1 to 250 μg L^− 1).
Table S2 Sequential therapies of the investigated drugs in the study cohort. The period to the prior drug is indicated in brackets.
Selleckchem (Houston, TX, USA). Standards were originally prepared as a 10 mM DMSO solution, but were further diluted with methanol to obtain stock solutions containing analyte concentrations of 10 mg L-1 and were stored at 4 °C. The internal standard (ISTD) carbamazepine (> 98 %) was obtained from Sigma-Aldrich Handels GmbH (Vienna, Austria) and used as a methanolic stock solution with a concentration of 2 g L-1, which was diluted as needed.
Succinanilic acid (p.a.) was purchased from Sigma-Aldrich Handels GmbH (Vienna, Austria) diluted to a 400 mg L-1 methanolic stock solution and stored at 4 °C.
All used solvents were HPLC grade and were purchased from VWR International GmbH (Darmstadt, […]
Formic acid (≥ 96 %) was purchased from Sigma-Aldrich Handels GmbH (Vienna, Austria).
Water was used in Millipore quality obtained from a Millipore purification system (Molsheim, France).
CSF samples (< 0.5 mL) of pediatric patients receiving cancer therapy drugs were collected using an Ommaya reservoir, and were stored at -80 °C prior to further analysis.

[4] = Calculated free (protein-unbound) drug levels in CSF, law of mass action; format: in vivo, human; details: law of mass action approach; for fraction unbound: human, CSF, oral, read-out: unbound fraction of the total drug amount measured in CSF
Source text: Directly measuring free drug levels in CSF may be impossible due to low drug concentrations. Besides the experimental quantitation, if feasible, also the law of mass action can be used to predict protein-unbound drug levels. Accordingly, CSF proteins and associated drugs may be considered as center and ligand, forming a complex. Consequently, we applied the corresponding mathematical model to estimate free drug concentration. The derivation is given in further detail in the supplementary material.

ABCB1 = experiment: Intracellular drug accumulation in ABCB1-overexpressing KB-C1 cells with or without elacridar (ABCB1 substrate testing), HPLC-QqQ MS; format: cell-based; details: fold-change of drug accumulation upon ABCB1-inhibition with elacridar, Fig. 4 coding: > 2 fold-control unfavorable, 1–2 intermediate, < 1 favorable
Description: We first compared interaction of the investigated drugs with ABCB1 by measuring fluorescent substrate drug accumulation in the parental KB-3-1 (a HeLa cell derivative) cell model and its isogenic ABCB1-overexpressing KB-C1 cell model, as previously published. As a known fluorescent ABCB1 substrate calcein (derived from non-fluorescent calcein AM) was used in the presence of investigated drugs (1 μM and 10 μM) using fluorescence-activated cell sorting (FACS). The ABCB1 inhibitor elacridar was used as positive control. As this approach cannot distinguish competitive (by a substrate) and non-competitive (by a pure inhibitor) ABCB1 inhibition, KB-C1 cells were additionally exposed to the examined drugs with or without elacridar to test the actual impact of ABCB1 activity on the concentration of drug within the cells. In detail, cultivated cells were grown, washed, lysed using 100 μL methanol, centrifuged and stored at − 80 C prior to analysis. […] Finally, 100 μL supernatant were collected and analyzed using the developed HPLC-QqQ MS method (see Supplementary Material).
6. Experiments with ABCB1-overexpressing KBC1 cells
Experiments were conducted to test for a possible inhibition or substrate character of the investigatzed […]
Figure S8 ABCB1 testing. (A) Calcein accumulation assay in KB-3-1 (control) and ABCB1-overexpressing KBC1 cells. Bars depict calcein fluorescence intensity measured by fluorescence activated cell sorting (FACS). Higher bars as compared to calcein in ABCB1-overexpressing cells indicate ABCB1-inhibition. Elacridar served as positive control. (B) Accumulation of drugs upon ABCB1-inhibition with elacridar measured by HPLC-QqQ MS.
(without elacridar inhibition).
(1 picture or pasted object on this page, not shown here)

[5] = cited from earlier work
[6] = Collision cross section by HPLC-IMS-Q-TOF MS; format: physicochemical
Source text: Data processing was achieved using MassHunter Workstation Software B.05.02 from Agilent […]
for quantitation, including all transitions and corresponding collision energies as well as fragmentor voltages and retention times.
Table S3 Overview of the used QqQ transitions for quantitative and qualitative characterization in Dynamic MRM Mode using 7 V of cell acceleration voltage, 500 ms cycle time and positive polarization within an Agilent 6420 QqQ.
Compound Precursor Ion Product Ion / r.t. / min Fragmentor / Collision […]
as §1

[7] = Matched serum sample to prove oral uptake of nintedanib, HPLC-MS; format: in vivo, human; details: one time point, patient #4

CSF penetrance class [3] | CSF concentration, mean [3] | fraction unbound [4] | calculated free, unbound CSF concentration, mean [4] | ABCB1 substrate evaluation (ABCB1) | SMILES | metabolite identification in CSF [1] | Active / Inactive (biological activity of metabolite) [2] | further results
 |  |  |  |  | Cc1ccc(NC(=O)c2ccc(CN3CCNCC3)cc2)cc1Nc1nccc(-c2cccnc2)n1 [demethylated imatinib] | identified | active | 
high (high (> 10 nM)) | 44.1 nM | ~0.99 | 43.5 nM | intermediate | CN(C)C(=O)c1cc2cnc(Nc3ccc(N4CCNCC4)cn3)nc2n1C1CCCC1 [ribociclib] |  |  | level detected in CSF of our patient ([3]; pediatric patient, 3.33 mg/kg daily, as quoted in discussion): 43 nM
high (high (> 10 nM)) | 75.4 nM | ~0.99 | 75.3 nM | most favorable | O=C(CCCCCCC(=O)Nc1ccccc1)NO [vorinostat] |  |  | 
 |  |  |  |  | O=C(O)CCC(=O)Nc1ccccc1 [succinanilic acid] | identified; also recorded: high concentrations | inactive | 
 |  |  |  |  | CNC(=O)c1cc2cnc(Nc3ccc(N4CCNCC4)cn3)nc2n1C1CCCC1 [demethylated ribociclib] | identified | active | 
 |  |  |  | highly transported by ABCB1 | Cc1[nH]c2ccccc2c1CCNCc1ccc(/C=C/C(=O)NO)cc1 [panobinostat] |  |  | detection in CSF samples [3]: not detected; also recorded: untraceable; panobinostat levels in a published study ([5]; children, higher panobinostat doses): below the detection limit; half-life [5]: 31 h
moderate (moderate (1–10 nM)) | 6.7 nM | < 0.6 | 3.9 nM | most favorable | CNC(=O)c1cc(Oc2ccc(NC(=O)Nc3ccc(Cl)c(C(F)(F)F)c3)c(F)c2)ccn1 [regorafenib] |  |  | CCS value relative to that expected from the MW [6]: significantly lower; protein binding in serum ([5]; serum): 99.5%
 |  |  |  |  | O=C(CCCCCCC(=O)Nc1ccccc1)NO[C@@H]1O[C@H](C(=O)O)[C@@H](O)[C@H](O)[C@H]1O [glucuronidated vorinostat] | identified | inactive | 
 |  |  |  | intermediate | COC(=O)c1ccc2c(c1)NC(=O)/C2=C(\Nc1ccc(N(C)C(=O)CN2CCN(C)CC2)cc1)c1ccccc1 [nintedanib] |  |  | detection in CSF samples [3]: not detected; also recorded: not identified; serum concentration [7]: 30 nM

SMILES | CSF penetrance class [3] | CSF concentration, mean [3] | fraction unbound [4] | calculated free, unbound CSF concentration, mean [4] | ABCB1 substrate evaluation (ABCB1) | metabolite identification in CSF [1] | Active / Inactive (biological activity of metabolite) [2] | further results
Cc1nc(Nc2ncc(C(=O)Nc3c(C)cccc3Cl)s2)cc(N2CCN(CCO)CC2)n1 [dasatinib] | moderate (moderate (1–10 nM)) | 1.2 nM | ~0.99 | 1 nM | highly transported by ABCB1 |  |  | proportion of CSF samples in which the drug was detected ([3]; CSF samples of pediatric patients): 66%
